Assay results from US20210299286A1, “TETRAZINES FOR HIGH CLICK CONJUGATION YIELD IN VIVO AND HIGH CLICK RELEASE YIELD” (Tagworks Pharmaceuticals B.V., priority 2018, published 2021).
Read-outs that look alike come from different tables or passages of the source.

Tests used:
[1] = system: LS174T human colon carcinoma cells; test: Cell proliferation (MTT) assay of ADCs with range of tetrazines; type: cell-based; settings: 3-day incubation; for cell growth inhibition, combination of ADC and activator: CC49-TCO-Dox 0.1 μM or AVP0458-TCO-MMAE 1 nM plus activator 1 μM; for cell growth inhibition, activators alone: activator 1 μM alone
Description: Cell proliferation was assessed after a 3-day incubation by means of an MTT assay and was expressed as the % of that obtained without treatment.

[2] = In vitro tetrazine stability (decrease of UV absorbance at 520 nm); type: physicochemical; settings: read-out: In vitro tetrazine stability (h), t1/2 (converted)
Description: The stability of tetrazines was evaluated by dissolving them in 10% MeCN/PBS at 37° C. and following the decrease of the tetrazine UV absorbance at 520 nm in time (Table 4).

AVP0458-TCO-MMAE = test: MMAE release from diabody ADC with D8-MMAE internal standard (LC-SIM-MS); type: biochemical; settings: 10 equiv of tetrazine, PBS/plasma (1/1), 37° C., after 24 h, n=3
Description: In an alternative method MMAE release from diabody ADC (AVP0458-TCO-MMAE) was determined by using a deuterated internal standard D8-MMAE. ADC (1.1×10^−10 moles bound MMAE) and D8-MMAE (1.1×10^−10 moles) and 10 equiv of tetrazine were incubated in 100 uL PBS/plasma (1/1) at 37° C.

[3] = Second-order reaction rate constant with TCO derivative by UV spectroscopy; type: physicochemical; settings: 25% MeCN/PBS at 20° C.
Description: The second-order reaction rate constants were calculated from the rate at which the absorption at 520 nm (specific for the TZ moiety) decreased (Table 4).

CC49-TCO-Dox [4] = test: In vitro Dox release from CC49-TCO-Dox in 50% mouse serum; type: biochemical
Description: (§1) Doxorubicin (Dox) release from the TCO-linked ADC CC49-TCO-Dox with various TZ activators in PBS and 50% mouse serum at 37° C. was evaluated in vitro as described in Rossin et al. Bioconjug. […] The results of these experiments are depicted in Tables 3 (PBS) and 4 (mouse serum). The release reactions were performed in triplicate unless otherwise stated in the result table.

CC49-TCO-Dox [5] = test: In vitro Dox release from CC49-TCO-Dox in PBS; type: biochemical
Description: as §1

[6] = Remark on stability of the free base; type: physicochemical; settings: intramolecular nucleophilic attack by the amine

Cc1nnc(-c2nccc(CNC(=O)CN(CCN(CC(=O)O)CC(=O)O)CC(=O)O)n2)nn1 [Compound 4.26]
cell growth inhibition, combination of ADC and activator [1]: growth inhibition approached that achieved with the corresponding amount of free drug | cell growth inhibition, activators alone [1]: minimal cell growth inhibition | half-life ([2]; 10% MeCN/PBS): 13 h | induced MMAE release (%) from AVP0458-TCO-MMAE (AVP0458-TCO-MMAE): 59 ± 0.6% | reactivity (k2) [3]: 135 M⁻¹ s⁻¹

Cc1nnc(-c2cnccn2)nn1 [Compound 4.18]
half-life ([2]; 10% MeCN/PBS): 16 h | induced MMAE release (%) from AVP0458-TCO-MMAE (AVP0458-TCO-MMAE): 55 ± 0.8% | reactivity (k2) [3]: 150 M⁻¹ s⁻¹

Cc1nnc(-c2nccnc2C)nn1 [Compound 4.20]
half-life ([2]; 10% MeCN/PBS): 15 h | induced MMAE release (%) from AVP0458-TCO-MMAE (AVP0458-TCO-MMAE): 59 ± 0.3% | reactivity (k2) [3]: 28 M⁻¹ s⁻¹

Cc1nnc(-c2nccc(CNC(=O)CCCC(=O)O)n2)nn1 [Compound 4.27]
induced MMAE release (%) from AVP0458-TCO-MMAE (AVP0458-TCO-MMAE): 66 ± 0.5%

Cc1nnc(-c2nccc(CNC(=O)OC(C)(C)C)n2)nn1 [Compound 4.17]
half-life ([2]; 10% MeCN/PBS): 12 h | induced MMAE release (%) from AVP0458-TCO-MMAE (AVP0458-TCO-MMAE): 70 ± 0.1% | reactivity (k2) [3]: 412 M⁻¹ s⁻¹

3-(pyridin-2-yl)-6-methyl-1,2,4,5-tetrazine functional dextran [Compound 3.2]
In vitro Dox release (%) from CC49-Dox at 37° C. in 50% mouse serum: 1 h (CC49-TCO-Dox [4]): 36.1 ± 0.1% | In vitro Dox release (%) from CC49-Dox at 37° C. in 50% mouse serum: 2 h (CC49-TCO-Dox [4]): 39.8 ± 0.2% | In vitro Dox release (%) from CC49-Dox at 37° C. in 50% mouse serum: 3 h (CC49-TCO-Dox [4]): 42.0 ± 0.4% | In vitro Dox release (%) from CC49-Dox at 37° C. in PBS: 1 h (CC49-TCO-Dox [5]): 44.3% | In vitro Dox release (%) from CC49-Dox at 37° C. in PBS: 2 h (CC49-TCO-Dox [5]): 44.7% | In vitro Dox release (%) from CC49-Dox at 37° C. in PBS: 3 h (CC49-TCO-Dox [5]): 47.5% | In vitro Dox release (%) from CC49-Dox at 37° C. in PBS: 24 h (CC49-TCO-Dox [5]): 45.0%

Cc1nnc(-c2ccc(NC(=O)CCCC(=O)NCCOCCOCCOCCOCCOCCOCCOCCOCCOCCOCCOCCNC(=O)CN3CCN(CC(=O)O)CCN(CC(=O)O)CCN(CC(=O)O)CC3)cn2)nn1 [Compound 3.4, 2,2′,2″-(10-(44-((6-(6-methyl-1,2,4,5-tetrazin-3-yl)pyridin-3-yl)amino)-2,40,44-trioxo-6,9,12,15,18,21,24,27,30,33,36-undecaoxa-3,39-diazatetratetracontyl)-1,4,7,10-tetraazacyclododecane-1,4,7-triyl)triacetic acid]
cell growth inhibition, combination of ADC and activator [1]: growth inhibition approached that achieved with the corresponding amount of free drug | cell growth inhibition, activators alone [1]: minimal cell growth inhibition | induced MMAE release (%) from AVP0458-TCO-MMAE (AVP0458-TCO-MMAE): 47 ± 0.3%

Cc1nnc(-c2ccncn2)nn1 [Compound 4.19]
half-life ([2]; buffer): 1 h | induced MMAE release (%) from AVP0458-TCO-MMAE (AVP0458-TCO-MMAE): 60 ± 0.1% | reactivity (k2) [3]: 290 M⁻¹ s⁻¹

Cc1nnc(-c2nccc(C(=O)O)n2)nn1 [Compound 4.23]
half-life ([2]; 10% MeCN/PBS): 6 h | induced MMAE release (%) from AVP0458-TCO-MMAE (AVP0458-TCO-MMAE): 69 ± 0.5% | reactivity (k2) [3]: 246 M⁻¹ s⁻¹

3,6-dimethyl-1,2,4,5-tetrazine functional dextran [Compound 2.2]
In vitro Dox release (%) from CC49-Dox at 37° C. in 50% mouse serum: 1 h (CC49-TCO-Dox [4]): 34.0 ± 1.2% | In vitro Dox release (%) from CC49-Dox at 37° C. in 50% mouse serum: 2 h (CC49-TCO-Dox [4]): 43.4 ± 1.5% | In vitro Dox release (%) from CC49-Dox at 37° C. in 50% mouse serum: 3 h (CC49-TCO-Dox [4]): 48.6 ± 1.2% | In vitro Dox release (%) from CC49-Dox at 37° C. in PBS: 1 h (CC49-TCO-Dox [5]): 44.9% | In vitro Dox release (%) from CC49-Dox at 37° C. in PBS: 2 h (CC49-TCO-Dox [5]): 51.3% | In vitro Dox release (%) from CC49-Dox at 37° C. in PBS: 3 h (CC49-TCO-Dox [5]): 54.6% | In vitro Dox release (%) from CC49-Dox at 37° C. in PBS: 24 h (CC49-TCO-Dox [5]): 62.3%

NCCCc1nnc(-c2ncccn2)nn1 [Compound 4.6]
stability in free base form [6]: highly unstable

CN(CCc1nnc(-c2ncccn2)nn1)C(=O)c1ccc(F)cc1 [Compound 4.35, 4-fluoro-N-methyl-N-(2-(6-(pyrimidin-2-yl)-1,2,4,5-tetrazin-3-yl)ethyl)benzamide]
cell growth inhibition, combination of ADC and activator [1]: growth inhibition approached that achieved with the corresponding amount of free drug | cell growth inhibition, activators alone [1]: minimal cell growth inhibition | induced MMAE release (%) from AVP0458-TCO-MMAE (AVP0458-TCO-MMAE): 67 ± 0.1%

NCCc1nnc(-c2nccc(CNC(=O)CCCC(=O)O)n2)nn1 [Compound 5.5]
induced MMAE release (%) from AVP0458-TCO-MMAE (AVP0458-TCO-MMAE): 81 ± 0.4%

O=C(O)CN1CCN(CC(=O)O)CCN(CC(=O)NCCOCCNC(=O)CCCC(=O)NCCCc2nnc(CCCNC(=O)CCCC(=O)NCCOCCNC(=O)CN3CCN(CC(=O)O)CCN(CC(=O)O)CCN(CC(=O)O)CC3)nn2)CCN(CC(=O)O)CC1 [Compound 5.3, Tz-bis-DOTA]
In vitro Dox release (%) from CC49-Dox at 37° C. in 50% mouse serum: 1 h (CC49-TCO-Dox [4]): 43.6 ± 3.5% | In vitro Dox release (%) from CC49-Dox at 37° C. in 50% mouse serum: 2 h (CC49-TCO-Dox [4]): 54.9 ± 6.0% | In vitro Dox release (%) from CC49-Dox at 37° C. in 50% mouse serum: 3 h (CC49-TCO-Dox [4]): 64.4 ± 3.3% | In vitro Dox release (%) from CC49-Dox at 37° C. in 50% mouse serum: 6 h (CC49-TCO-Dox [4]; 6 h): 67.5 ± 8.3% | In vitro Dox release (%) from CC49-Dox at 37° C. in PBS: 1 h (CC49-TCO-Dox [5]): 50.5% | In vitro Dox release (%) from CC49-Dox at 37° C. in PBS: 2 h (CC49-TCO-Dox [5]): 59.3% | In vitro Dox release (%) from CC49-Dox at 37° C. in PBS: 3 h (CC49-TCO-Dox [5]): 62.5% | In vitro Dox release (%) from CC49-Dox at 37° C. in PBS: 24 h (CC49-TCO-Dox [5]): 80.3% | In vitro Dox release (%) from CC49-Dox at 37° C. in PBS: 48 h (CC49-TCO-Dox [5]): 91.2%

Cc1nnc(-c2ccccn2)nn1 [Compound 3.1, 3-(2-pyridyl)-6-methyl-1,2,4,5-tetrazine]
In vitro Dox release (%) from CC49-Dox at 37° C. in 50% mouse serum: 1 h (CC49-TCO-Dox [4]): 53.8 ± 1.7% | In vitro Dox release (%) from CC49-Dox at 37° C. in 50% mouse serum: 2 h (CC49-TCO-Dox [4]): 57.1 ± 1.8% | In vitro Dox release (%) from CC49-Dox at 37° C. in 50% mouse serum: 3 h (CC49-TCO-Dox [4]): 59.6 ± 2.0% | In vitro Dox release (%) from CC49-Dox at 37° C. in PBS: 1 h (CC49-TCO-Dox [5]): 55.1% | In vitro Dox release (%) from CC49-Dox at 37° C. in PBS: 2 h (CC49-TCO-Dox [5]): 55.9% | In vitro Dox release (%) from CC49-Dox at 37° C. in PBS: 3 h (CC49-TCO-Dox [5]): 58.9% | In vitro Dox release (%) from CC49-Dox at 37° C. in PBS: 24 h (CC49-TCO-Dox [5]): 59.6%

CN(CCc1nnc(-c2ncccn2)nn1)C(=O)N1CCN(C(=O)c2ccc(F)cc2)CC1 [Compound 4.33, 4-(4-fluorobenzoyl)-N-methyl-N-(2-(6-(pyrimidin-2-yl)-1,2,4,5-tetrazin-3-yl)ethyl)piperazine-1-carboxamide]
cell growth inhibition, combination of ADC and activator [1]: growth inhibition approached that achieved with the corresponding amount of free drug | cell growth inhibition, activators alone [1]: minimal cell growth inhibition | induced MMAE release (%) from AVP0458-TCO-MMAE (AVP0458-TCO-MMAE): 53 ± 0.6%

COCCOCCOCCOCCOCCOCCOCCOCCOCCOCCOCC(=O)NCCCc1nnc(-c2ncccn2)nn1 [Compound 4.24]
half-life ([2]; 10% MeCN/PBS): 13 h

O=C(O)CN1CCN(CC(=O)O)CCN(CC(=O)NCCOCCOCCOCCOCCOCCOCCOCCOCCOCCOCCOCCNC(=O)CCCC(=O)Nc2ccc(-c3nnc(-c4ccccn4)nn3)nc2)CCN(CC(=O)O)CC1 [Compound 5.1, 2,2′,2″-(10-(2,40,44-Trioxo-44-((6-(6-(pyridine-2-yl)-1,2,4,5-tetrazin-3-yl)pyridine-3-yl)amino)-6,9,12,15,18,21,24,27,30,33,36-undecaoxa-3,39-diazatetratetracontyl)-1,4,7,10-tetraazacyclododecane-1,4,7-triyl)triacetic acid]
In vitro Dox release (%) from CC49-Dox at 37° C. in 50% mouse serum: 1 h (CC49-TCO-Dox [4]): 13.7 ± 0.7% | In vitro Dox release (%) from CC49-Dox at 37° C. in 50% mouse serum: 2 h (CC49-TCO-Dox [4]): 15.2 ± 1.4% | In vitro Dox release (%) from CC49-Dox at 37° C. in 50% mouse serum: 3 h (CC49-TCO-Dox [4]): 14.8 ± 0.8% | In vitro Dox release (%) from CC49-Dox at 37° C. in PBS: 1 h (CC49-TCO-Dox [5]): 14.2% | In vitro Dox release (%) from CC49-Dox at 37° C. in PBS: 2 h (CC49-TCO-Dox [5]): 20.4% | In vitro Dox release (%) from CC49-Dox at 37° C. in PBS: 3 h (CC49-TCO-Dox [5]): 24.3% | In vitro Dox release (%) from CC49-Dox at 37° C. in PBS: 24 h (CC49-TCO-Dox [5]): 48.1% | In vitro Dox release (%) from CC49-Dox at 37° C. in PBS: 48 h (CC49-TCO-Dox [5]): 54.9%

NCCc1nnc(-c2nccc(CNC(=O)CCCC(=O)NC(CO)(CO)CO)n2)nn1 [Compound 5.8]
induced MMAE release (%) from AVP0458-TCO-MMAE (AVP0458-TCO-MMAE): 80 ± 0.5%
